Results reported in PubChem BioAssay (NCI).
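96-well plates; 48 h exposure; 5 concentrations. Endpoints by linear interpolation between flanking doses. Not reached: highest tested concentration assigned. TGI is the concentration that stops growth completely.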

How the values were obtained:
Assay in all cases: DTP human tumour cell line panel, 48 h
786-0 renal = test system: 786-0 renal
A498 renal = test system: A498 renal
A549 NSCLC = test system: A549 NSCLC
ACHN renal = test system: ACHN renal
CCRF-CEM leukemia = test system: CCRF-CEM leukemia
COLO 205 colon = test system: COLO 205 colon
DLD-1 colon = test system: DLD-1 colon
DMS 114 small cell lung = test system: DMS 114 small cell lung
DMS 273 small cell lung = test system: DMS 273 small cell lung
EKVX NSCLC = test system: EKVX NSCLC
HCC-2998 colon = test system: HCC-2998 colon
HCT-116 colon = test system: HCT-116 colon
HCT-15 colon = test system: HCT-15 colon
HL-60(TB) leukemia = test system: HL-60(TB) leukemia
HOP-18 NSCLC = test system: HOP-18 NSCLC
HOP-62 NSCLC = test system: HOP-62 NSCLC
HOP-92 NSCLC = test system: HOP-92 NSCLC
HT29 colon = test system: HT29 colon
IGROV1 ovarian = test system: IGROV1 ovarian
K-562 leukemia = test system: K-562 leukemia
KM12 colon = test system: KM12 colon
KM20L2 colon = test system: KM20L2 colon
LOX IMVI melanoma = test system: LOX IMVI melanoma
LXFL 529 NSCLC = test system: LXFL 529 NSCLC
M14 melanoma = test system: M14 melanoma
M19-MEL melanoma = test system: M19-MEL melanoma
MALME-3M melanoma = test system: MALME-3M melanoma
NCI-H226 lung = test system: NCI-H226 lung
NCI-H23 lung = test system: NCI-H23 lung
NCI-H460 lung = test system: NCI-H460 lung
NCI-H522 lung = test system: NCI-H522 lung
OVCAR-3 ovarian = test system: OVCAR-3 ovarian
OVCAR-4 ovarian = test system: OVCAR-4 ovarian
OVCAR-5 ovarian = test system: OVCAR-5 ovarian
OVCAR-8 ovarian = test system: OVCAR-8 ovarian
RXF 393 renal = test system: RXF 393 renal
RXF-631 renal = test system: RXF-631 renal
SF-268 CNS = test system: SF-268 CNS
SF-295 CNS = test system: SF-295 CNS
SF-539 CNS = test system: SF-539 CNS
SK-MEL-2 melanoma = test system: SK-MEL-2 melanoma
SK-MEL-28 melanoma = test system: SK-MEL-28 melanoma
SK-MEL-5 melanoma = test system: SK-MEL-5 melanoma
SK-OV-3 ovarian = test system: SK-OV-3 ovarian
SN12C renal = test system: SN12C renal
SNB-19 CNS = test system: SNB-19 CNS
SNB-75 CNS = test system: SNB-75 CNS
SNB-78 CNS = test system: SNB-78 CNS
SW-620 colon = test system: SW-620 colon
TK-10 renal = test system: TK-10 renal
U251 CNS = test system: U251 CNS
UACC-257 melanoma = test system: UACC-257 melanoma
UACC-62 melanoma = test system: UACC-62 melanoma
UO-31 renal = test system: UO-31 renal
XF 498 CNS = test system: XF 498 CNS
CAKI-1 renal = test system: CAKI-1 renal
MOLT-4 leukemia = test system: MOLT-4 leukemia
RPMI-8226 leukemia = test system: RPMI-8226 leukemia
SR leukemia = test system: SR leukemia
BT-549 breast = test system: BT-549 breast
DU-145 prostate = test system: DU-145 prostate
HS 578T breast = test system: HS 578T breast
MCF7 breast = test system: MCF7 breast
MDA-MB-231 breast = test system: MDA-MB-231 breast
MDA-MB-435 = test system: MDA-MB-435
MDA-N = test system: MDA-N
NCI/ADR-RES ovarian = test system: NCI/ADR-RES ovarian
T-47D breast = test system: T-47D breast

COc1c(O)ccc(/C=N/NC(=S)NCOCCOC(C)=O)c1OC
TGI (786-0 renal): > 100 µM | TGI (A498 renal): > 100 µM | TGI (A549 NSCLC): > 100 µM | TGI (ACHN renal): > 100 µM | TGI (CCRF-CEM leukemia): > 100 µM | TGI (COLO 205 colon): > 100 µM | TGI (DLD-1 colon): > 100 µM | TGI (DMS 114 small cell lung): > 100 µM | TGI (DMS 273 small cell lung): > 100 µM | TGI (EKVX NSCLC): > 100 µM | TGI (HCC-2998 colon): > 100 µM | TGI (HCT-116 colon): > 100 µM | TGI (HCT-15 colon): > 100 µM | TGI (HL-60(TB) leukemia): > 100 µM | TGI (HOP-18 NSCLC): > 100 µM | TGI (HOP-62 NSCLC): > 100 µM | TGI (HOP-92 NSCLC): > 100 µM | TGI (HT29 colon): > 100 µM | TGI (IGROV1 ovarian): > 100 µM | TGI (K-562 leukemia): > 100 µM | TGI (KM12 colon): > 100 µM | TGI (KM20L2 colon): > 100 µM | TGI (LOX IMVI melanoma): > 100 µM | TGI (LXFL 529 NSCLC): > 100 µM | TGI (M14 melanoma): > 100 µM | TGI (M19-MEL melanoma): > 100 µM | TGI (MALME-3M melanoma): > 100 µM | TGI (NCI-H226 lung): > 100 µM | TGI (NCI-H23 lung): > 100 µM | TGI (NCI-H460 lung): > 100 µM | TGI (NCI-H522 lung): > 100 µM | TGI (OVCAR-3 ovarian): > 100 µM | TGI (OVCAR-4 ovarian): > 100 µM | TGI (OVCAR-5 ovarian): > 100 µM | TGI (OVCAR-8 ovarian): > 100 µM | TGI (RXF 393 renal): > 100 µM | TGI (RXF-631 renal): > 100 µM | TGI (SF-268 CNS): > 100 µM | TGI (SF-295 CNS): > 100 µM | TGI (SF-539 CNS): > 100 µM | TGI (SK-MEL-2 melanoma): > 100 µM | TGI (SK-MEL-28 melanoma): > 100 µM | TGI (SK-MEL-5 melanoma): > 100 µM | TGI (SK-OV-3 ovarian): > 100 µM | TGI (SN12C renal): > 100 µM | TGI (SNB-19 CNS): > 100 µM | TGI (SNB-75 CNS): > 100 µM | TGI (SNB-78 CNS): > 100 µM | TGI (SW-620 colon): > 100 µM | TGI (TK-10 renal): > 100 µM | TGI (U251 CNS): > 100 µM | TGI (UACC-257 melanoma): > 100 µM | TGI (UACC-62 melanoma): > 100 µM | TGI (UO-31 renal): > 100 µM | TGI (XF 498 CNS): > 100 µM

Cc1ccccc1-c1cc(=O)c2cc(C)c(C)c(C(=O)O)c2o1
TGI (786-0 renal): > 100 µM | TGI (A549 NSCLC): > 100 µM | TGI (ACHN renal): > 100 µM | TGI (CAKI-1 renal): > 100 µM | TGI (CCRF-CEM leukemia): > 100 µM | TGI (COLO 205 colon): > 100 µM | TGI (DLD-1 colon): > 100 µM | TGI (DMS 114 small cell lung): > 100 µM | TGI (DMS 273 small cell lung): > 100 µM | TGI (EKVX NSCLC): > 100 µM | TGI (HCC-2998 colon): > 100 µM | TGI (HCT-116 colon): > 100 µM | TGI (HCT-15 colon): > 100 µM | TGI (HL-60(TB) leukemia): > 100 µM | TGI (HOP-18 NSCLC): > 100 µM | TGI (HOP-62 NSCLC): > 100 µM | TGI (HOP-92 NSCLC): > 100 µM | TGI (HT29 colon): > 100 µM | TGI (IGROV1 ovarian): > 100 µM | TGI (K-562 leukemia): > 100 µM | TGI (KM12 colon): > 100 µM | TGI (KM20L2 colon): > 100 µM | TGI (LOX IMVI melanoma): > 100 µM | TGI (LXFL 529 NSCLC): > 100 µM | TGI (M14 melanoma): > 100 µM | TGI (M19-MEL melanoma): > 100 µM | TGI (MALME-3M melanoma): > 100 µM | TGI (MOLT-4 leukemia): > 100 µM | TGI (NCI-H226 lung): > 100 µM | TGI (NCI-H23 lung): > 100 µM | TGI (NCI-H460 lung): > 100 µM | TGI (NCI-H522 lung): > 100 µM | TGI (OVCAR-3 ovarian): > 100 µM | TGI (OVCAR-4 ovarian): > 100 µM | TGI (OVCAR-5 ovarian): > 100 µM | TGI (OVCAR-8 ovarian): > 100 µM | TGI (RPMI-8226 leukemia): > 100 µM | TGI (RXF-631 renal): > 100 µM | TGI (SF-295 CNS): > 100 µM | TGI (SF-539 CNS): > 100 µM | TGI (SK-MEL-2 melanoma): > 100 µM | TGI (SK-MEL-28 melanoma): > 100 µM | TGI (SK-MEL-5 melanoma): > 100 µM | TGI (SK-OV-3 ovarian): > 100 µM | TGI (SN12C renal): > 100 µM | TGI (SNB-19 CNS): > 100 µM | TGI (SNB-75 CNS): > 100 µM | TGI (SNB-78 CNS): > 100 µM | TGI (SR leukemia): > 100 µM | TGI (SW-620 colon): > 100 µM | TGI (TK-10 renal): > 100 µM | TGI (U251 CNS): > 100 µM | TGI (UACC-257 melanoma): > 100 µM | TGI (UACC-62 melanoma): > 100 µM | TGI (UO-31 renal): > 100 µM | TGI (XF 498 CNS): > 100 µM

CC1=CC(=O)c2ccc3c4ccccc4n(C)c3c2C1=O
TGI (786-0 renal): > 100 µM | TGI (A498 renal): > 100 µM | TGI (A549 NSCLC): > 100 µM | TGI (ACHN renal): > 100 µM | TGI (BT-549 breast): > 100 µM | TGI (CAKI-1 renal): > 67.5 µM | TGI (CCRF-CEM leukemia): > 81.5 µM | TGI (COLO 205 colon): > 100 µM | TGI (DLD-1 colon): > 100 µM | TGI (DMS 114 small cell lung): 97.1 µM | TGI (DMS 273 small cell lung): > 100 µM | TGI (DU-145 prostate): > 100 µM | TGI (EKVX NSCLC): > 62.7 µM | TGI (HCC-2998 colon): > 100 µM | TGI (HCT-116 colon): > 100 µM | TGI (HCT-15 colon): > 100 µM | TGI (HL-60(TB) leukemia): > 72.3 µM | TGI (HOP-18 NSCLC): 42.2 µM | TGI (HOP-62 NSCLC): > 100 µM | TGI (HOP-92 NSCLC): > 100 µM | TGI (HS 578T breast): > 100 µM | TGI (HT29 colon): > 31.6 µM | TGI (IGROV1 ovarian): > 100 µM | TGI (K-562 leukemia): > 100 µM | TGI (KM12 colon): > 100 µM | TGI (LXFL 529 NSCLC): > 100 µM | TGI (M14 melanoma): 64.4 µM | TGI (M19-MEL melanoma): 38.2 µM | TGI (MALME-3M melanoma): 30 µM | TGI (MCF7 breast): > 100 µM | TGI (MDA-MB-231 breast): > 100 µM | TGI (MDA-MB-435): 33.4 µM | TGI (MDA-N): 33.1 µM | TGI (MOLT-4 leukemia): > 72.8 µM | TGI (NCI-H226 lung): > 100 µM | TGI (NCI-H23 lung): > 92 µM | TGI (NCI-H460 lung): > 100 µM | TGI (NCI-H522 lung): 78.9 µM | TGI (NCI/ADR-RES ovarian): > 100 µM | TGI (OVCAR-3 ovarian): > 100 µM | TGI (OVCAR-4 ovarian): > 100 µM | TGI (OVCAR-5 ovarian): > 100 µM | TGI (OVCAR-8 ovarian): > 100 µM | TGI (RPMI-8226 leukemia): > 100 µM | TGI (RXF 393 renal): > 100 µM | TGI (SF-268 CNS): > 100 µM | TGI (SF-295 CNS): > 100 µM | TGI (SF-539 CNS): > 100 µM | TGI (SK-MEL-2 melanoma): 53.1 µM | TGI (SK-MEL-28 melanoma): > 100 µM | TGI (SK-MEL-5 melanoma): 30.5 µM | TGI (SK-OV-3 ovarian): > 100 µM | TGI (SN12C renal): > 100 µM | TGI (SNB-19 CNS): > 100 µM | TGI (SNB-75 CNS): > 100 µM | TGI (SNB-78 CNS): > 100 µM | TGI (SW-620 colon): > 100 µM | TGI (T-47D breast): > 100 µM | TGI (TK-10 renal): > 100 µM | TGI (U251 CNS): > 100 µM | TGI (UACC-257 melanoma): > 100 µM | TGI (UO-31 renal): > 100 µM | TGI (XF 498 CNS): > 100 µM
